Reference: paper PMC7367283, “A PIP2 substitute mediates voltage sensor-pore coupling in KCNQ activation” (Communications Biology, 2020)
Values joined by “and” are separate entries in the source; they are usually repeats but may differ in a detail not shown here. Identical values can stand only once.

Tested on: guinea pig ventricular myocytes
Assay: Action potential recording in ventricular myocytes with moxifloxacin-prolonged (LQT) action potentials
Type: cell-based
Parameters: actional potential duration (APD), Fig. 7h: unit not given here
Conditions: for actional potential duration (APD), Fig. 7h: Moxi-Group, individual cells
Experimental: Fig. 7 Effects of CP1 on IKs and action potentials in cardiomyocytes. a IKs currents in guinea pig ventricular myocytes in the absence and presence of 30 µM CP1 in the whole-cell patch-clamp configuration. Holding potential: −40 mV; testing potentials: −20 to +60 mV with 10-mV increment; returning potential: −20 mV. […] Guinea pig ventricular myocytes were first perfused with 10 µM CP1 and 10 µM chromanol. After APD reached steady state, 10 µM CP1 was constitutively perfused alone. Last, CP1 was washed out for near-full reversal of APD shortening. g Effects of 0.2 µM CP1 on LQT action potentials. To mimic the LQT, 100 µM moxifloxacin was applied 2 h before the treatment of CP1. h Change of action potential duration after application of different [CP1]s (n = 5–7). Tukey–Kramer ANOVA test was used to compare control cells in different CP1 concentration, # is significant at P < 0.05. Unpaired two-tailed Student t tests were used to compare control and moxifloxacin cells at different CP1 concentration: * is significant at P < 0.05.
In ventricular myocytes, the duration and the morphology of action potentials are determined by various ion channels. Mutations in many of these channels and drugs that modify channel functions, such as an increase in inward Na^+ currents or decrease in outward K^+ currents, may lead to a prolonged action potential duration, which results in an inherited or acquired long QT syndrome that predisposes afflicted patients to cardiac arrhythmia. An enhancement of the outward IKs current may be able to counter these mutations or drug effects, and restore the action potential duration to more normal values. […] Next, we used an IKr blocker (Moxifloxacin, Moxi) to prolong action potentials and then applied various concentrations of CP1.
The use of guinea pigs was approved by the Stony Brook University Institutional Animal Care and Use Committee. Single ventricular myocytes were acutely enzymatically isolated from guinea pig heart as previously described. Guinea pigs, weighing 300–500 g, were sacrificed by peritoneal injection of sodium pentobarbitone (1 ml, 390 mg/ml). The isolated cells were stored in KB solution containing (in mM) 83 KCl, 30 K2HPO4, 5 MgSO4, 5 Na pyruvate, 5 β-OH-butyric acid, 20 creatine, 20 taurine, 10 glucose, and 0.5 EGTA, pH 7.2.
Action potentials were recorded with whole-cell patch-clamp recording techniques. Current-clamp configuration was used. Freshly isolated guinea pig cardiac myocytes were placed at 1 Hz with a stimulus of 180-pA amplitude and 10-mS duration. The APD was determined at 90% repolarization. Several minutes were allowed for the APD to reach steady state before data were collected. Typical Tyrode mimic AP Solution for action potential recording was used. The bath solution is composed of (in mM) 140 NaCl, 3 KCl, 1 MgCl2, 1.8 CaCl2, 10 HEPES, and 10 Glucose, pH 7.4. The pipette solution is composed of (in mM) 115 K-aspartic acid, 35 KOH, 3 MgCl2, 10 HEPES, 11 EGTA, 5 Glucose, and 3 MgATP, pH 7.4.

O=S(=O)([O-])Oc1c(-c2sc3c(ccc4cccc(Cl)c43)c2OS(=O)(=O)[O-])[nH]c2ccc(Br)cc12.[Na+].[Na+] [CP1, DISODIUM 5-BROMO-2-[9-CHLORO-3-(SULFONATOOXY) NAPHTHO [1,2-B] THIEN-2-YL]-1H-INDOL-3-YL SULFATE]
action potential duration (0.2 µM CP1, 100 µM moxifloxacin applied 2 h before): return the action potential duration back to normal
action potential duration (0.6 and 6 µM CP1, moxifloxacin): reduced Moxifloxacin-induced action potential prolongation
actional potential duration (APD), Fig. 7h (0.2 µM CP1): 628 and 590 and 655 and 646 and 548 and 586
actional potential duration (APD), Fig. 7h (0.6 µM CP1): 549 and 521 and 579 and 388 and 495
actional potential duration (APD), Fig. 7h (6 µM CP1): 393 and 380 and 396 and 407 and 426 and 406
